In the experiment the target is T1, Dimer of Gag-Pol polyprotein [489-587,Q496K] (Human immunodeficiency virus 1, UniProt P12497, Q496K).
T1 construct: 489-587
The experiment can be described thus: Protease Inhibition Assay. Particulars: pH 5.5; 30 °C. As to the method: Assay of HIV protease inhibition was performed by peptide cleavage using the substrate Val-Ser-Gln-Asn-beta-naphthylalanine*Pro-Ile-Val. Products of the cleavage reaction were quantified by HPLC detection, and data were fit to nonlinear least squares equations for determination of steady-state Michaelis-Menten kinetics.

Each structure is given as a SMILES string. pIC50: −log10 of the molar value.

As usually defined, the pIC50 is the IC50 on a negative log10 scale, so that one unit is a factor of ten.

In turn, `CC(C)(c1ccc(-c2ccncc2)o1)N1CCN(C[C@@H](O)C[C@@H](Cc2ccccc2)C(=O)N[C@H]2c3ccccc3OC[C@H]2O)[C@H](C(=O)NCC(F)(F)F)C1` [(2S)-1-[(2S,4R)-4-benzyl-2-hydroxy-4-{[(3S,4S)-3-hydroxy-3,4-dihydro-2H-1-benzopyran-4-yl]carbamoyl}butyl]-4-{2-[5-(pyridin-4-yl)furan-2-yl]propan-2-yl}-N-(2,2,2-trifluoroethyl)piperazine-2-carboxamide] had a pIC50 of 10.30.
On to `CC(C)(c1ncc(-c2cncc(Cl)c2)o1)N1CCN(C[C@@H](O)C[C@@H](Cc2ccccc2)C(=O)N[C@H]2c3ccccc3OC[C@H]2O)[C@H](C(=O)NCC(F)(F)F)C1` [(2S)-1-[(2S,4R)-4-benzyl-2-hydroxy-4-{[(3S,4S)-3-hydroxy-3,4-dihydro-2H-1-benzopyran-4-yl]carbamoyl}butyl]-4-{2-[5-(5-chloropyridin-3-yl)-1,3-oxazol-2-yl]propan-2-yl}-N-(2,2,2-trifluoroethyl)piperazine-2-carboxamide], for which the pIC50 is 10.70.
